# Data reported in PubChem BioAssay AID1645866 (Buhrlage Lab, Dana-Farber Cancer Institute and Novartis …, 2021).
# The source made the active and inactive calls.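 How the source made its calls: active means in confirmatory dose-response testing, peak deubiquitinase inhibition of 30% or more; inactive means the rest.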
# Molecular target: Ubiquitin carboxyl-terminal hydrolase 28 (Homo sapiens) (UniProt Q96RU2)
# Experiment: Ubiquitin-specific peptidase 28 DUB inhibitors, biochemical concentration-dependence assay, validation of primary screening hits (AID 1645866)
# Conditions: purified USP28, ubiquitin-rhodamine fluorescence, 30 min
# Ubiquitin carboxyl-terminal hydrolase 28 (Homo sapiens), sequence (Q96RU2 whole entry, looked up): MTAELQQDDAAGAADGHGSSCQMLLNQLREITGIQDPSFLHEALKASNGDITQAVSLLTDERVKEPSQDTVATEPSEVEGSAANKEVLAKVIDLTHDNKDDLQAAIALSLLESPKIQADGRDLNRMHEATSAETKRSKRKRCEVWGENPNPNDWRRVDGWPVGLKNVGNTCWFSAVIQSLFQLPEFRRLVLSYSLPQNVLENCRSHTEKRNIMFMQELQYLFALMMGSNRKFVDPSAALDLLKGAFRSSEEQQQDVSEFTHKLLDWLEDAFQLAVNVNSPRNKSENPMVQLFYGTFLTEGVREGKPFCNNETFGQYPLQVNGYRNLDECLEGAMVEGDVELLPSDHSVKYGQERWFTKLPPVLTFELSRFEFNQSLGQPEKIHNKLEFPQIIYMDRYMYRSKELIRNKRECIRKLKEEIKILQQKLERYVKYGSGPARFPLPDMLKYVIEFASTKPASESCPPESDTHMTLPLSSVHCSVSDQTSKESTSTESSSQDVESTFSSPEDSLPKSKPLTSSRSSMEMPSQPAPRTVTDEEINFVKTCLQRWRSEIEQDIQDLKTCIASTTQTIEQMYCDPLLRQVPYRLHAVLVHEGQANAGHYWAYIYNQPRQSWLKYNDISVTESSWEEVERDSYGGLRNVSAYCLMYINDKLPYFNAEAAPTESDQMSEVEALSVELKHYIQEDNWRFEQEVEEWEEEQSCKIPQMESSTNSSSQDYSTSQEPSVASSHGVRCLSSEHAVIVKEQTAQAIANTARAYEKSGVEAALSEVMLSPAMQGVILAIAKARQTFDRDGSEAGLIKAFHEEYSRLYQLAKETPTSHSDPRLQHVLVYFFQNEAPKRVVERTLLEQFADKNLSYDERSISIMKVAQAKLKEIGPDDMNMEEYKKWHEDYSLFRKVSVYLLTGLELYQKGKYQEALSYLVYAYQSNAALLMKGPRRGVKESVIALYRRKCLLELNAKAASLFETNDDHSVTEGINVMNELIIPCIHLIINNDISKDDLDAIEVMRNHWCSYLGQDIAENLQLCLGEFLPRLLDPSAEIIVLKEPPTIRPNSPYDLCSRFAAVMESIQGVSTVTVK
row,Compound,IC50
1,Cc1nn(-c2ccccc2)c(C)c1C(=O)OCC(=O)Nc1cccc(Br)c1,2.72 µM
2,CCOc1ccc(Nc2cc(C(=O)NCCc3ccccc3)c3ccccc3n2)cc1,26 µM
3,O=S(c1ccc2ccccc2c1)c1cnns1 (stereo not given),> 50 µM (inactive)
4,CSc1ccccc1NC(=O)c1ccc(-n2cccn2)nn1,5.75 µM
5,O=C(Nc1ccc(SCc2nnc(-c3ccccc3)o2)cc1)C1CC1,8.42 µM
6,O=C(COc1cc([N+](=O)[O-])cc2cccnc12)NCCC1=CCCCC1,28.6 µM
7,N#Cc1ccc(NC(=O)Nc2cccn(Cc3ccccc3Br)c2=O)cc1,4.34 µM
8,CCOc1ccccc1C(=O)NCC(=O)OC(C(=O)c1c[nH]c2ccccc12)c1ccccc1 (stereo not given),> 50 µM (inactive)
9,CC1(C)Cc2c(sc3nc(Cc4ccccc4)nc(SCC(=O)Nc4ccccc4)c23)CO1,2.4 µM
10,O=C(NCCc1ccccn1)c1cn2ccnc(-c3ccc(F)cc3)c2n1,> 50 µM (inactive)
11,CC(C)c1cc(NCc2ccccc2)n2nc(-c3cccnc3)nc2n1,16.9 µM
12,CC1CCCCN1c1nc(F)c2c(c1F)S(=O)(=O)CCN2Cc1ccccc1 (stereo not given),> 50 µM (inactive)
13,COC(=O)c1ccc2c(=O)n(CCCCCC(=O)NCc3cccc(Cl)c3)c(=O)[nH]c2c1,2.05 µM
14,CSc1cccc(NC(=O)CCc2ccc3nc(NC(C)=O)sc3c2)c1,> 50 µM (inactive)
15,Cc1ccc(NC(=O)c2ccn(COc3ccc(F)cc3)n2)nc1,33.3 µM
16,CCOc1cccc(NC(=O)c2ccc(S(=O)(=O)N3CCc4ccccc4C3)cc2)c1,44.3 µM
17,COc1cccc2sc(N3CCN(c4nc5ccccc5s4)CC3)nc12,> 50 µM (inactive)
18,CCOCCCn1c(SCC(=O)Nc2ccccc2C(F)(F)F)nc2ccccc2c1=O,17 µM
19,O=C(Nc1nc2c(s1)COCC2)c1cc(-c2ccco2)[nH]n1,> 50 µM (inactive)
20,c1ccc2c(c1)CCc1c-2nc2ccccc2c1N1CCOCC1,> 50 µM (inactive)
21,Cc1cc(NC(=O)Cn2c(=O)n(CCCCC(=O)NCc3ccco3)c(=O)c3ccccc32)ccc1Br,2.36 µM
22,O=C(CSc1ncnc2c1sc1cccc(F)c12)N1CCCCCC1,> 50 µM (inactive)
23,CC(=O)c1oc2nc3c(c(-c4ccc(Cl)cc4)c2c1N)CCc1ccccc1-3,> 50 µM (inactive)
24,Cc1cc(NC(=O)c2cc(-c3cccnc3)n[nH]2)ccc1Br,1.03 µM
25,CN(C)c1ccc(CCN2CCc3nc4cccnc4cc3C2)cc1,> 50 µM (inactive)

row,Compound,IC50
1,COc1c2nc3ccccc3oc-2cc(=O)c1OC,> 50 µM (inactive)
2,O=C(c1ccco1)N1CCCC2(C1)Nc1cccnc1NC2=NC1CCCC1 (stereo not given),> 50 µM (inactive)
3,O=[N+]([O-])c1ccc(NCc2ccc(-c3cccs3)s2)nc1,2.19 µM
4,N#Cc1ccccc1Cn1c(=O)n(CCCCC(=O)NCCc2ccccc2)c(=O)c2ccccc21,19.6 µM
5,Nc1nc(-c2ccc[nH]2)cs1,> 50 µM (inactive)
6,Fc1ccc(CN2CCc3nc4cccnc4cc3C2)cc1,> 50 µM (inactive)
7,Cn1c(CCN2CCCC2)nc2cc(NC(=O)c3ccccc3)ccc21,> 50 µM (inactive)
8,COc1ccc(CNC(=O)c2ccccc2N2C(=O)N3CCc4c([nH]c5ccccc45)[C@@]3(C)C2=O)cc1,37.4 µM
9,Cc1ccc(C)c(S(=O)(=O)N2CCN(c3ccc4nnc(-c5ccco5)n4n3)CC2)c1,> 50 µM (inactive)
10,Cc1cccc(NC(=O)c2noc3c2CCc2sccc2-3)n1,16.8 µM
11,O=C1C=CC(O)C2C1CC13SSC4(CC5C(=O)C=CC(O)C5N4C1=O)C(=O)N23 (stereo not given),> 50 µM (inactive)
12,CCOc1ccc2nc(NC(=O)C3CCN(S(=O)(=O)c4ccc5c(c4)CC(C)N5C(C)=O)CC3)sc2c1 (stereo not given),> 50 µM (inactive)
13,Cc1ccc(C(=O)c2cn(CC(=O)Nc3ccccc3)c3ccc(C)cc3c2=O)cc1,6 µM
14,CCn1c(SCC(=O)c2c(N)n(CC(C)C)c(=O)n(C)c2=O)nnc1-c1ccccc1,13.9 µM
15,Cc1cc(O)c2c3c(c(O)cc2c1)C(=O)c1c(O)cccc1C3=O,1.89 µM
16,CCOc1ccc(NC(=O)Cn2c(=O)n(CCCCCC(=O)NCc3ccc(F)cc3)c(=O)c3sccc32)cc1,1.95 µM
17,COc1ccc(O)c(C(=O)OCc2cc(=O)oc3ccc4ccccc4c23)c1,> 50 µM (inactive)
18,CCCC(=O)c1c[nH]c(C(=O)NCc2ccc(F)cc2)c1,18.7 µM
19,N#Cc1cccc(NC(=O)Nc2cccn(Cc3ccccc3F)c2=O)c1,4.02 µM
20,CCC(C)c1ccc(O[C@@H]2O[C@@H]3COC(c4ccccc4)O[C@H]3[C@H](O)[C@H]2NC(C)=O)cc1 (stereo not given in full),20.2 µM
21,Cc1ccc(NC(=O)C2CCN(c3cncnc3N3CCCC3)CC2)cc1,0.456 µM
22,Cc1ccccc1NC(=O)Cn1cc(-c2nc(C3CC3)no2)ccc1=O,> 50 µM (inactive)
23,Cc1cc(N2CCC(NC(=O)NCc3ccc(F)cc3)C2=O)ccc1F (stereo not given),15 µM
24,CC(=O)Nc1ccc(S(=O)(=O)NCc2ccc(C(=O)NCCc3ccc(Cl)cc3)cc2)cc1,1.77 µM
25,Cn1c(COc2ccccc2)nnc1SCC(=O)Nc1ccc(N2CCOCC2)cc1,2.43 µM

row,Compound,IC50
1,COc1ccc(C(=O)CSc2ccc3nnc(CCNC(=O)c4ccc(OC)cc4)n3n2)cc1,> 50 µM (inactive)
2,N#Cc1cn(CC(=O)N2CCc3ccccc32)c2ccccc12,17.2 µM
3,CCn1c(SCc2cccc(C)c2)nnc1-c1cnccn1,22 µM
4,COc1ccc(C(=O)NCCc2nnc3ccc(SCC(=O)NCc4ccc(F)cc4)nn23)cc1,15.7 µM
5,COc1ccccc1CNC(=O)c1ccccc1OCc1ccccc1Cl,> 50 µM (inactive)
6,COCCNC(=O)c1ccn(-c2ccc3ccc(-c4ccncc4)cn23)n1,> 50 µM (inactive)
7,COc1ccc(S(=O)(=O)N2CCN3Cc4ccccc4N(C)CC3C2)cc1 (stereo not given),> 50 µM (inactive)
8,Cc1nn(C)c2c1[C@@H](c1ccc(F)c(Br)c1)[C@H](NC(=O)c1ccccc1)C(=O)N2,3.79 µM
9,Cc1ccc(-c2nc(Cn3nnc(-c4nc(-c5ccccn5)no4)c3C)c(C)o2)cc1,> 50 µM (inactive)
10,O=C(Nc1cccn(Cc2c(Cl)cccc2Cl)c1=O)c1ccccc1[N+](=O)[O-],4.79 µM
11,O=C(c1ccc2cc[nH]c2c1)N1CCC(Nc2cccnc2)C1 (stereo not given),> 50 µM (inactive)
12,CSc1cccc(NC(=O)COc2cccc3ccccc23)c1,2.57 µM
13,COc1ccc(C(=O)C2CC(=O)Nc3c2c(C)nn3-c2ccc(Br)cc2)cc1 (stereo not given),20.1 µM
14,COc1cc(C)cc2c1C(=O)c1c(cc(O)c(Cl)c1O)C2=O,1.48 µM
15,CCCCCC(O)c1c(O)cc2c(c1O)C(=O)c1c(O)cc(O)cc1C2=O (stereo not given),> 50 µM (inactive)
16,Cc1csc2ncc(C(=O)N3CCN(c4ccccc4F)CC3)c(=O)n12,> 50 µM (inactive)
17,O=C(NCC1CC1)C1CCCN(c2ccc(-c3ccccc3)nn2)C1 (stereo not given),> 50 µM (inactive)
18,Cc1ccc(Cl)c(-n2nnc(C(=O)Nc3ccccc3C#N)c2C)c1,12 µM
19,CCOc1ccccc1NC(=O)COC(=O)C(c1ccccc1)c1ccccc1,> 50 µM (inactive)
20,COc1ccc2[nH]cc(S(=O)(=O)c3ccc(C)c(F)c3)c(=O)c2c1,24.1 µM
21,Cc1ccc(CNC(=O)Cn2cnc3c(cnn3-c3cccc(Cl)c3)c2=O)cc1,2.58 µM
22,CCCNC(=O)c1ccn(-c2ccc3ccc(-c4cnn(C)c4)cn23)n1,> 50 µM (inactive)
23,CC1=C(c2ccc(F)cc2)S(=O)(=O)NC1=NCC(=O)Nc1cccc(F)c1,48.7 µM
24,NC(=O)C1(N2CCCCC2)CCN(C(=O)c2[nH]nc3c2CCc2ccccc2-3)CC1,> 50 µM (inactive)
25,CCOc1ccccc1NC(=O)Cn1ccn2nc(-c3ccc(OC)cc3)cc2c1=O,16.5 µM

row,Compound,IC50
1,Cc1cc(O)c(=O)cc2c1C[C@H]1CC(C)(C)/C=C/C[C@@]3(C)Oc4cc(=O)c(O)cc(C)c4C[C@@H]3C[C@H](O)[C@]1(C)O2,> 50 µM (inactive)
2,COc1ccc(C(C(=O)NCc2ccccc2)N(C(=O)CCN2CCc3ccccc32)c2ccc(C)c(C)c2)cc1 (stereo not given),> 50 µM (inactive)
3,Cc1nc(-c2ccc(-n3cc(C(=O)Nc4cccc(F)c4)c(C)n3)cc2)no1,42.5 µM
4,Cn1c(-c2nnc(SCC(=O)Nc3ccccc3F)o2)cc2ccccc21,17.9 µM
5,C/C1=C/C=C/[C@H](C)[C@H](O)[C@@H](C)[C@@H](O)[C@@H](C)[C@H](O)[C@H](C)[C@@H](O)[C@@H](C)/C=C(/C)C(=O)c2c(O)c(C)cc3c2C(=O)C=C(NC1=O)C3=O,> 50 µM (inactive)
6,COc1ccc(Nc2nc3c(S(=O)(=O)c4ccc(C)cc4)nnn3c3ccsc23)c(OC)c1,2.01 µM
7,CCCC(=O)N1CCC2(CC1)Nc1ccccc1NC2=O,> 50 µM (inactive)
8,COc1ccc(-c2cc(-c3ccc(O)cc3)nc(N)c2C#N)cc1OC,32.6 µM
9,Cc1ccccc1NC(=O)c1ccn(COc2ccc(Cl)cc2)n1,13.3 µM
10,O=C(NCc1ccccc1)Nc1cccc2ccccc12,29.3 µM
11,COc1ccc(-c2nc3n(n2)C(CC(=O)Nc2cccc4ccccc24)C(=O)N3)cc1 (stereo not given),4.08 µM
12,Cc1ccc(NC(=O)c2nnn(-c3ccccc3)n2)cc1F,19.9 µM
13,CCc1ccc2[nH]c3c(c(=O)c2c1)CN(CC(=O)NCc1ccc2c(c1)OCO2)CC3,20 µM
14,CCOc1ccc(-n2c(SCC(=O)N3CC(=O)Nc4ccccc43)nnc2-c2ccc(OC)cc2)cc1,25.2 µM
15,Fc1cnc(N2CC[C@H]3CO[C@H](CNc4ncccn4)[C@H]3C2)nc1,> 50 µM (inactive)
16,Cc1ccc(C)c(Cn2nnc3c(=O)[nH]c(C4CCN(S(=O)(=O)c5ccc(S(=O)(=O)NC6CC6)cc5)CC4)nc32)c1,9.09 µM
17,O=C(Cn1c(-c2ccccc2)ncc(C(=O)NC2CC2)c1=O)Nc1ccccc1,14.2 µM
18,O=C(COc1ccc(Cl)cc1Cl)Nc1ccc2[nH]c(=O)[nH]c2c1,5.44 µM
19,COc1ccc(OC)c(NC(=O)CS(=O)(=O)c2cn(CC(=O)N3CCC(C)CC3)c3ccccc23)c1,25 µM
20,CC(=O)Nc1ccc(S(=O)(=O)N2CCCC(C(=O)Nc3cccc4ccccc34)C2)cc1 (stereo not given),19.1 µM
21,COc1ccc(C)cc1NC(=O)C1CC(=O)Nc2nc(SCc3ccccc3)nn21 (stereo not given),14.7 µM
22,O=C(CN1C(=O)C2CCCC2=Nc2ccccc21)Nc1ccc(F)cc1F (stereo not given),26.2 µM
23,CCC(=O)Nc1ccccc1-c1nc2ccccc2n(CC(=O)Nc2cc(OC)ccc2OC)c1=O,14 µM
24,Cc1sc2ncnc(OCc3ccc(F)cc3Cl)c2c1C,0.436 µM
25,CNS(=O)(=O)c1ccc(CNC(=O)c2cc(-c3ccc(C)cc3)no2)cc1,21 µM
